Where “and” joins values, the source holds several entries; their conditions need not be identical. Equal values may be shown once.
Test system: C3H kidney allografts in pre-sensitized B6 recipients
Test: Pre-sensitized mouse kidney allograft model, RAPA / CFH / FK506, graft survival (Example 2)
Assay type: in vivo
Source text: Male C3H (H-2k) and C57BL/6 (B6, H-2b) mice (25-30 g) were used to determine the efficacy of Rapamycin (RAPA) in combination with Factor H (FH) during transplant rejection. C3H mice served as skin graft and kidney donors for pre-sensitization and kidney transplantation. Male C57BL/c (B6) mice were used as recipients. The B6 recipients were pre-sensitized by transplantation of the donor skin grafts, and were subsequently transplanted with kidney allografts between 15 and 20 days after the skin transplantation. […]
Mice were monitored daily for signs of rejection and were euthanized at the end point of the experiment, which was defined as when transplants developed functional deterioration due to severe rejection or on POD60 and POD100. Renal graft function was monitored by plasma creatinine (Cr) blood urea nitrogen (BUN) and hematocrit (Hct) levels by an I-Stat potable analyzer (Abaxis). Circulating donor specific antibodies (DSAs) were determined prior to kidney transplantation and at the endpoint of study by flow cytometry.

## CO[C@H]1C[C@@H]2CC[C@@H](C)[C@@](O)(O2)C(=O)C(=O)N2CCCC[C@H]2C(=O)O[C@H]([C@H](C)C[C@@H]2CC[C@@H](O)[C@H](OC)C2)CC(=O)[C@H](C)/C=C(\C)[C@@H](O)[C@@H](OC)C(=O)[C@H](C)C[C@H](C)/C=C/C=C/C=C/1C [RAPA Alone, Rapamycin]
Individual grafts, pre-sensitized kidney transplant model
  Survival: 8 days (2×) and 37 days and 10 days and 11 days and 12 days and 22 days and 14 days and 16 days and 20 days
Per cohort, untreated controls 8 days
  MST (mean survival time): 14 days
